Measured values taken from US20250221979A1, “NOVEL HETEROCYCLIC COMPOUND” (SHOUYAO HOLDINGS (BEIJING) CO., LTD., priority 2022, published 2025).

Molecular target: human MAT2A enzyme (Homo sapiens (Human), UniProt P31153)
Test: In vitro enzymatic inhibition activity assay on MAT2A (PiColorLock phosphate detection)
Type: biochemical
Conditions: purified human MAT2A 10 nM, ATP 50 μM, L-methionine 100 μM, 6 h at 23° C.; read-out: MAT2A inhibitory activity IC50
Procedure: Enzymatic activity assays of compounds of this patent against MAT2A (to detect half inhibitory concentration IC50 values of the compounds) were performed using the phosphate detection kit PiColorLockTM (ab270004, purchased from Abcam). This method utilized the principle that purified human MAT2A enzyme catalyzes the formation of S-adenosylmethionine (SAM) from L-methionine and ATP to release free phosphate, and used the spectrophotometric method to quantify phosphate, so as to determine the enzymatic activity of MAT2A. Compounds were diluted in a 10-fold gradient starting at 1 mM with 100% DMSO (for a total of 8 concentrations) and 2 μL of each concentration was added to 48 μL of reaction buffer (50 mM Tris-HCl PH 7.5, 50 mM KCl, 10 mM MgCl2, 0.01% Brij-35, 0.01% BSA, 1 mM DTT) and mixed well. The final diluted compound was prepared, and 5 μL of MAT2A enzyme (final concentration of 10 nM), 5 μL of ATP (final concentration of 50 μM), and 5 μL of L-methionine (final concentration of 100 μM) were added to each well of a 384-well plate (#3701, purchased from CORNING). After the 384-well plate was placed in the incubator at 23° C. for 6 h, 5 μL of PiColorLock reagent diluted Accelerator (dilution ratio 1:100) was added to each well, and the reaction was stopped by incubating in the incubator at 23° C. for 5 min. 2 μL of Stabiliser was added, the absorbance was read at 630 nm on BMG CLARIOstar, and the IC50 value of the compound was calculated by using GraphPad Prism software.
Under the conditions of this experiment, the inhibition of MAT2A by test compounds can be expressed as an IC50 value for the inhibition of the level of phosphate production during the enzymatic reaction.

human MAT2A enzyme, sequence (P31153 whole entry): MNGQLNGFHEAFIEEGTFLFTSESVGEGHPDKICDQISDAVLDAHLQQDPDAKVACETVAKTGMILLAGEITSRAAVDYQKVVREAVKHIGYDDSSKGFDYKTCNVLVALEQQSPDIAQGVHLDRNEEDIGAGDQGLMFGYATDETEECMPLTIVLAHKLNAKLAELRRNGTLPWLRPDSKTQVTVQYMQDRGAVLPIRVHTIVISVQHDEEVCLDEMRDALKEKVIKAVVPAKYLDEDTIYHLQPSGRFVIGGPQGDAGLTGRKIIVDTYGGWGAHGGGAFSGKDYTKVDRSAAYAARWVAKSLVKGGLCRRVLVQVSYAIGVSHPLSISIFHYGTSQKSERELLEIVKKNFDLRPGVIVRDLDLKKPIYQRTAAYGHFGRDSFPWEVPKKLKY

Row | IC50 | Compound
1 | 0.15 nM | COC(=O)c1c(N)c2ccc(Br)nc2n(-c2ccc(I)cc2)c1=O [Example 275, methyl 4-amino-7-bromo-1-(4-iodophenyl)-2-oxo-1,2-dihydro-1,8-naphthyridine-3-carboxylate]
2 | 2.3 nM | COC(=O)c1c(N)c2c(F)cc(Br)cc2n(-c2ccc(N)cc2)c1=O [Example 339, methyl 4-amino-1-(4-aminophenyl)-7-bromo-5-fluoro-2-oxo-1,2-dihydroquinoline-3-carboxylate]
3 | 1.25 nM | COC(=O)c1c(N)c2ccc(C3CC3)cc2n(-c2ccc([C@@H](C)O)cc2)c1=O [Example 353, methyl 4-amino-(1-(4-(1R)-1-hydroxyethyl)phenyl)-7-cyclopropyl-2-oxo-1,2-dihydroquinoline-3-carboxylate]
4 | 1.94 nM | COC(=O)c1c(N)c2ccc(C(F)F)cc2n(-c2ccc(C(C)O)cc2)c1=O (stereo not drawn) [Example 336, methyl 4-amino-7-(difluoromethyl)-1-(4-(1-hydroxyethyl)phenyl)-2-oxo-1,2-dihydroquinoline-3-carboxylate]
5 | 8.38 nM | COC(=O)c1c(N)c2ccc(Br)cc2n(-c2cccc3c2COC3)c1=O [Example 222, methyl 4-amino-7-bromo-1-(1,3-dihydro-2-benzofuran-4-yl)-2-oxo-1,2-dihydroquinoline-3-carboxylate]
6 | 0.32 nM | [2H]C([2H])([2H])OC(=O)c1c(N)c2ccc(Br)cc2n(-c2ccc(N)cc2)c1=O [Example 189, methyl-d3 4-amino-1-(4-aminophenyl)-7-bromo-2-oxo-1,2-dihydroquinolin-3-carboxylate]
7 | 1.84 nM | COC(=O)c1c(N)c2ccc(Br)cc2n(-c2ccc(OC)nc2)c1=O [Example 211, methyl 4-amino-7-bromo-1-(6-methoxypyridin-3-yl)-2-oxo-1,2-dihydroquinoline-3-carboxylate]
8 | 1.25 nM | COC(=O)c1c(N)c2ccc(C(F)F)cc2n(-c2ccc(N)cc2)c1=O [Example 327, methyl 4-amino-1-(4-aminophenyl)-2-oxo-7-(difluoromethyl)-1,2-dihydro quinoline-3-carboxylate]
9 | 2.59 nM | COC(=O)c1c(N)c2ccc(Br)cc2n(-c2ccc(N)c3cnccc23)c1=O [Example 178, methyl 4-amino-1-(8-aminoisoquinolin-5-yl)-7-bromo-2-oxo-1,2-dihydroquinoline-3-carboxylate]
10 | 0.43 nM | COC(=O)c1c(N)c2ccc(I)cc2n(-c2ccc(C(C)O)cc2)c1=O (stereo not drawn) [Example 298, methyl 4-amino-1-(4-(1-hydroxyethyl)phenyl)-2-oxo-7-iodo-1,2-dihydroquinoline-3-carboxylate]
11 | 0.59 nM | COC(=O)c1c(N)c2ccc(Br)cc2n(-c2ccc(C)cc2)c1=O [Example 101, methyl 4-amino-7-bromo-1-(4-methylphenyl)-2-oxo-1,2-dihydroquinoline-3-carboxylate]
12 | 0.93 nM | COC(=O)c1c(N)c2ccc(Br)cc2n(-c2ccc(Cl)cc2)c1=O [Example 91, methyl 4-amino-7-bromo-1-(4-chlorophenyl)-2-oxo-1,2-dihydroquinoline-3-carboxylate]

The remaining lines, values behind:

Row | Compound | IC50
13 | COC(=O)c1c(N)c2ccc(C(F)(F)F)cc2n(-c2ccc3nc[nH]c3c2)c1=O [Example 76, methyl 4-amino-1-(3H-benzo[d]imidazol-5-yl)-2-oxo-7-(trifluoromethyl)-1,2-dihydroquinoline-3-carboxylate] | 1.71 nM
14 | COC(=O)c1c(N)c2ccc(C(F)(F)F)cc2n(-c2ccc3sccc3c2)c1=O [Example 153, methyl 4-amino-1-(benzo[b]thiophen-5-yl)-2-oxo-7-(trifluoromethyl)-1,2-dihydroquinoline-3-carboxylate] | 2.62 nM
15 | CCc1ccccc1-n1c(=O)c(C(=O)OC)c(N)c2ccc(C(F)(F)F)cc21 [Example 145, methyl 4-amino-1-(2-ethylphenyl)-2-oxo-7-(trifluoromethyl)-1,2-dihydroquinoline-3-carboxylate] | 4.6 nM
16 | COC(=O)c1c(N)c2ccc(I)cc2n(-c2ccc3ccncc3c2)c1=O [Example 242, methyl 4-amino-7-iodo-1-(isoquinolin-7-yl)-2-oxo-1,2-dihydroquinoline-3-carboxylate] | 1.26 nM
17 | COC(=O)c1c(N)c2ccc(C(F)(F)F)nc2n(-c2cnc(Cl)cc2C)c1=O [Example 204, methyl 4-amino-1-(6-chloro-4-methylpyridin-3-yl)-2-oxo-7-(trifluoromethyl)-1,2-dihydro-1,8-naphthyridine-3-carboxylate] | 4.62 nM
18 | COC(=O)c1c(N)c2ccc(Br)nc2n(-c2ccc(Cl)cc2C)c1=O [Example 287, methyl 4-amino-7-bromo-1-(4-chloro-2-methylphenyl)-2-oxo-1,2-dihydro-1,8-naphthyridine-3-carboxylate] | 1.45 nM
19 | COC(=O)c1c(N)c2ccc(C(F)(F)F)nc2n(-c2ccc([C@@H](C)O)cc2)c1=O [Example 348, methyl 4-amino-(1-(4-(1R)-1-hydroxyethyl)phenyl)-7-(trifluoromethyl)-2-oxo-pyrido[2,3-b]pyridin-3-carboxylate] | 1.33 nM
20 | C=Cc1ccc2c(N)c(C(=O)OC)c(=O)n(-c3ccccc3)c2c1 [Example 24, methyl 4-amino-7-vinyl-2-oxo-1-phenyl-1,2-dihydroquinoline-3—carboxylate] | 2.34 nM
21 | Nc1c(C(=O)OC2CC2)c(=O)n(-c2ccccc2)c2cc(C(F)(F)F)ccc12 [Example 51, cyclopropyl 4-amino-2-oxo-1-phenyl-7-(trifluoromethyl)-1,2-dihydroquinolin-3-carboxylate] | 2.62 nM
22 | COC(=O)c1c(N)c2ccc(I)cc2n(-c2cccc3c2CCO3)c1=O [Example 59, methyl 4-amino-1-(2,3-dihydro-1-benzofuran-4-yl)-7-iodo-2-oxo-1,2-dihydro quinoline-3-carboxylate] | 5.12 nM
23 | COC(=O)c1c(N)c2ccc(Br)nc2n(-c2ccc(Cl)c3cnccc23)c1=O [Example 289, methyl 4-amino-1-(8-chloroisoquinolin-5-yl)-7-bromo-2-oxo-1,2-dihydro-1,8-naphthyridine-3-carboxylate] | 1.04 nM
24 | COC(=O)c1c(N)c2ccc(C(F)(F)F)cc2n(-c2ccc(C)cc2C)c1=O [Example 149, methyl 4-amino-1-(2,4-dimethylphenyl)-2-oxo-7-(trifluoromethyl)-1,2-dihydroquinoline-3-carboxylate] | 3.12 nM
25 | N#Cc1c(N)c2ccc(I)cc2n(-c2ccccc2)c1=O [Example 4, 4-amino-7-iodo-2-oxo-1-phenyl-1,2-dihydroquinolin-3-carbonitrile] | 2.28 nM
26 | COC(=O)c1c(N)c2ccc(C(F)(F)F)cc2n(-c2ccc3c(c2)CCC3O)c1=O (stereo not drawn) [Example 135, methyl 4-amino-1-(1-hydroxy-2,3-dihydro-1H-inden-5-yl)-2-oxo-7-(trifluoromethyl)-1,2-dihydroquinoline-3-carboxylate] | 8.85 nM
27 | [2H]C([2H])([2H])OC(=O)c1c(N)c2ccc(OC(F)(F)F)cc2n(-c2ccc(N)cc2)c1=O [Example 391, methyl-d3 4-amino-1-(4-aminophenyl)-2-oxo-7-(trifluoromethoxy)-1,2-dihydroquinoline-3-carboxylate] | 1.31 nM
28 | COC(=O)c1c(N)c2ccc(Cl)nc2n(-c2cccc3cnccc23)c1=O [Example 201, methyl 4-amino-7-chloro-1-(isoquinolin-5-yl)-2-oxo-1,2-dihydro-1,8-naphthyridine-3-carboxylate] | 5.38 nM
29 | COC(=O)c1c(N)c2ccc(C(F)(F)F)cc2n(-c2ccc(C(C)O)cc2C)c1=O (stereo not drawn) [Example 269, methyl 4-amino-1-(4-(1-hydroxyethyl)-2-methylphenyl)-2-oxo-7-(trifluoromethyl)-1,2-dihydroquinoline-3-carboxylate] | 5.95 nM
30 | COC(=O)c1c(N)c2ccc(C(F)(F)F)nc2n(-c2ccc(C(C)O)cc2)c1=O (stereo not drawn) [Example 303, methyl 4-amino-1-(4-(1-hydroxyethyl)phenyl)-2-oxo-7-(trifluoromethyl)-1,2-dihydro-1,8-naphthyridine-3-carboxylate] | 0.92 nM
31 | COC(=O)c1c(N)c2ccc(C(F)(F)F)nc2n(-c2cccc3c(C)nccc23)c1=O [Example 319, methyl 4-amino-1-(1-methylisoquinolin-5-yl)-2-oxo-7-(trifluoromethyl)-1,2-dihydro-1,8-naphthyridine-3-carboxylate] | 1.2 nM
32 | COC(=O)c1c(N)c2ccc(C(F)(F)F)cc2n(-c2ccc(N)cc2C)c1=O [Example 237, methyl 4-amino-1-(4-amino-2-methylphenyl)-2-oxo-7-(trifluoromethyl)-1,2-dihydroquinoline-3-carboxylate] | 1.64 nM
33 | COC(=O)c1c(N)c2ccc(C3CC3)nc2n(-c2ccc(C(C)O)cc2)c1=O (stereo not drawn) [Example 360, methyl 4-amino-7-cyclopropyl-1-(4-(1-hydroxyethyl)phenyl)-2-oxo-1,2-dihydro-1,8-naphthyridine-3-carboxylate] | 1.27 nM
